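These data come from cells grown in 96-well plates and exposed to compound for 48 hours at five concentrations. Abbreviation: GI50, concentration required for 50% inhibition of growth. The concentration for full growth arrest is given as TGI.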
Key:
Assay in all cases: NCI anticancer screen, dose series, 48 h
MDA-N = system: MDA-N
DLD-1 colon = system: DLD-1 colon
DMS 273 small cell lung = system: DMS 273 small cell lung
HOP-18 NSCLC = system: HOP-18 NSCLC
KM20L2 colon = system: KM20L2 colon
M19-MEL melanoma = system: M19-MEL melanoma
SNB-78 CNS = system: SNB-78 CNS
XF 498 CNS = system: XF 498 CNS
RXF-631 renal = system: RXF-631 renal

Cc1cc(N=Nc2ccccc2C)ccc1N
TGI (MDA-N): 39.6 µM

O=C(O)Cc1cccnc1
TGI (MDA-N): > 100 µM

C[CH2][Sn]([CH2]C)([O]C(=O)c1ccccc1OC)[O][Sn]([CH2]C)([CH2]C)[O]C(=O)c1ccccc1OC
GI50 (DLD-1 colon): 50.2 µM
TGI (DLD-1 colon): > 100 µM
GI50 (DMS 273 small cell lung): > 100 µM
TGI (DMS 273 small cell lung): > 100 µM
GI50 (HOP-18 NSCLC): > 100 µM
TGI (HOP-18 NSCLC): > 100 µM
GI50 (KM20L2 colon): > 100 µM
TGI (KM20L2 colon): > 100 µM
GI50 (M19-MEL melanoma): > 100 µM
TGI (M19-MEL melanoma): > 100 µM
GI50 (SNB-78 CNS): 63.4 µM
TGI (SNB-78 CNS): > 100 µM
GI50 (XF 498 CNS): > 100 µM
TGI (XF 498 CNS): > 100 µM

O=C(O)CCC(=O)c1ccc2sc3ccccc3c2c1
TGI (MDA-N): > 100 µM

CC1(C)CC(=O)C2=C(C1)OC(N)=C(c1nc(-c3ccccc3)cs1)C2c1ccc(Br)cc1 (stereo unspecified)
GI50 (MDA-N): 74.3 µg/mL
TGI (MDA-N): > 150 µg/mL

Cc1ccc(C)c(N2C(=O)C(=O)C(c3nc4ccccc4s3)/C(=N/NC(=O)NN)C2=O)c1 (stereo unspecified)
TGI (DLD-1 colon): > 100 µM
TGI (DMS 273 small cell lung): > 100 µM
TGI (HOP-18 NSCLC): > 100 µM
TGI (KM20L2 colon): > 100 µM
TGI (M19-MEL melanoma): > 100 µM
TGI (RXF-631 renal): > 100 µM
TGI (SNB-78 CNS): > 100 µM
TGI (XF 498 CNS): > 100 µM

O=C(O)c1cccc(C(=O)O)c1S(=O)Cc1ccccc1 (stereo unspecified)
TGI (MDA-N): > 100 µM

Cc1nc(C(=O)O)c2ccccc2n1
TGI (DLD-1 colon): > 100 µM
TGI (DMS 273 small cell lung): > 100 µM
TGI (KM20L2 colon): > 100 µM
TGI (SNB-78 CNS): > 100 µM

CC(C)(Br)C(=O)C(Br)Br
TGI (DLD-1 colon): 3.34 µM
TGI (DMS 273 small cell lung): 26.9 µM
TGI (KM20L2 colon): 32.2 µM
TGI (M19-MEL melanoma): 16.1 µM
TGI (MDA-N): 9.54 µM
TGI (RXF-631 renal): 27.1 µM
TGI (SNB-78 CNS): 13.9 µM
TGI (XF 498 CNS): 23.8 µM

C=CNC(=O)NC(=O)CSc1nnc(-c2ccccc2NC(=O)C(F)(F)F)c(=O)[nH]1
TGI (DLD-1 colon): 22.7 µM
TGI (DMS 273 small cell lung): > 100 µM
TGI (M19-MEL melanoma): > 100 µM
TGI (SNB-78 CNS): > 100 µM
TGI (XF 498 CNS): > 100 µM

COCOCC/C=C/C=O
TGI (DLD-1 colon): > 100 µM
TGI (HOP-18 NSCLC): > 100 µM
TGI (KM20L2 colon): > 100 µM
TGI (SNB-78 CNS): > 100 µM
TGI (XF 498 CNS): > 100 µM

NC(=O)NNC(=O)NC12CC3CC(CC(C3)C1)C2
TGI (DLD-1 colon): > 100 µM
TGI (DMS 273 small cell lung): > 100 µM
TGI (HOP-18 NSCLC): > 100 µM
TGI (KM20L2 colon): > 100 µM
TGI (M19-MEL melanoma): > 100 µM
TGI (SNB-78 CNS): > 100 µM
TGI (XF 498 CNS): > 100 µM

Cc1ccc(/C(C#N)=C/c2cccc([N+](=O)[O-])c2)cc1
TGI (MDA-N): > 100 µM

N#CC(c1ccccn1)c1nc2ccccc2[nH]1 (stereo unspecified)
TGI (DLD-1 colon): > 100 µM
TGI (M19-MEL melanoma): > 100 µM
TGI (SNB-78 CNS): > 100 µM
TGI (XF 498 CNS): > 100 µM

Cc1cc[n+]2c(c1)-c1cc(C)cc[n+]1CC2
TGI (MDA-N): > 100 µM

OC(C#Cc1ccccc1)(c1ccccc1)c1ccccc1
TGI (MDA-N): 61.7 µM

Cc1ccc(S(=O)(=O)N/N=C(/CC(=O)c2c(C)n([O-])c3ccccc3[n+]2=O)C(=O)Nc2ccccc2C)cc1
TGI (DLD-1 colon): > 100 µM
TGI (DMS 273 small cell lung): > 100 µM
TGI (HOP-18 NSCLC): > 100 µM
TGI (KM20L2 colon): > 100 µM
TGI (M19-MEL melanoma): > 100 µM
TGI (SNB-78 CNS): > 100 µM

N#Cc1ccc(C=NC23CC4CC(CC(C4)C2)C3)cc1
TGI (DMS 273 small cell lung): > 100 µM
TGI (KM20L2 colon): > 100 µM
TGI (M19-MEL melanoma): > 100 µM
TGI (RXF-631 renal): > 100 µM
TGI (SNB-78 CNS): > 100 µM

O=C(CC1SC(=Nc2ccccc2Cl)NC1=O)Nc1ccc(Cl)cc1Cl (stereo unspecified)
TGI (DLD-1 colon): > 100 µM
TGI (HOP-18 NSCLC): > 100 µM
TGI (KM20L2 colon): > 100 µM
TGI (M19-MEL melanoma): > 100 µM
TGI (RXF-631 renal): > 100 µM
TGI (SNB-78 CNS): > 100 µM
TGI (XF 498 CNS): > 100 µM

N#CC(C#N)c1ccc(C(=O)N2CCC[C@H]2CO)cc1
TGI (DLD-1 colon): > 100 µM
TGI (DMS 273 small cell lung): > 100 µM
TGI (HOP-18 NSCLC): > 100 µM
TGI (KM20L2 colon): > 100 µM
TGI (M19-MEL melanoma): > 100 µM
TGI (RXF-631 renal): > 100 µM

O=S(=O)(/C=C/C(=C/c1ccccc1)S(=O)(=O)c1ccccc1)c1ccccc1
TGI (DMS 273 small cell lung): 2.9 µM
TGI (RXF-631 renal): 2.31 µM
TGI (XF 498 CNS): 3.09 µM

O=c1[nH]cc(F)c(=O)n1C1OC(CO)C(O)C1O (stereo unspecified)
TGI (DLD-1 colon): > 100 µM
TGI (DMS 273 small cell lung): > 100 µM
TGI (HOP-18 NSCLC): > 100 µM
TGI (KM20L2 colon): > 100 µM
TGI (SNB-78 CNS): > 100 µM
TGI (XF 498 CNS): > 100 µM

CCC1(O)C(=O)OCc2c1cc1n(c2=O)Cc2cc3c(NC(=O)CN)cccc3nc2-1 (stereo unspecified)
GI50 (DLD-1 colon): 11.2 µM
TGI (DLD-1 colon): > 100 µM
GI50 (DMS 273 small cell lung): 0.0963 µM
TGI (DMS 273 small cell lung): 1.83 µM
GI50 (HOP-18 NSCLC): 1.02 µM
TGI (HOP-18 NSCLC): > 24.3 µM
GI50 (KM20L2 colon): 1.77 µM
GI50 (M19-MEL melanoma): 1.38 µM
TGI (M19-MEL melanoma): 14.1 µM
GI50 (MDA-N): 4.94 µM
TGI (MDA-N): > 55.8 µM
GI50 (SNB-78 CNS): 8.13 µM
TGI (SNB-78 CNS): > 100 µM
GI50 (XF 498 CNS): 2.24 µM
TGI (XF 498 CNS): 25.4 µM

O=S(=O)(c1cccc(N=C=S)c1)c1cccc(N=C=S)c1
TGI (DLD-1 colon): 40.7 µM
TGI (DMS 273 small cell lung): 40.6 µM
TGI (KM20L2 colon): > 100 µM
TGI (SNB-78 CNS): 63.5 µM

NC(=O)c1csc(C2OC(COP(=O)(O)CP(=O)(O)OCC3OC(n4cnc5c(N)ncnc54)C(O)C3O)C(O)C2O)n1 (stereo unspecified)
TGI (DLD-1 colon): > 100 µM
TGI (DMS 273 small cell lung): > 100 µM
TGI (HOP-18 NSCLC): > 100 µM
TGI (KM20L2 colon): > 100 µM
TGI (M19-MEL melanoma): > 100 µM
TGI (RXF-631 renal): > 100 µM
TGI (SNB-78 CNS): > 100 µM
TGI (XF 498 CNS): > 100 µM

COC1C(N)C(OC2C(Oc3cccc4c(O)c5c(=O)oc6ccc(C)c7c(=O)oc(c34)c5c67)OC(C)C(O)C2(C)O)OC(C)C1O (stereo unspecified)
TGI (DLD-1 colon): 0.726 µM
TGI (DMS 273 small cell lung): 0.399 µM
TGI (HOP-18 NSCLC): 3.08 µM
TGI (KM20L2 colon): 1.21 µM
TGI (M19-MEL melanoma): 0.458 µM
TGI (MDA-N): 0.541 µM
TGI (RXF-631 renal): 1.45 µM
TGI (SNB-78 CNS): 0.302 µM
TGI (XF 498 CNS): 0.208 µM

CCCCCCCCCCCCC(Br)C(=O)NCC(N)=O (stereo unspecified)
TGI (DLD-1 colon): 29.8 µM
TGI (DMS 273 small cell lung): 25 µM
TGI (HOP-18 NSCLC): 28.2 µM
TGI (KM20L2 colon): 42.5 µM
TGI (M19-MEL melanoma): 32.5 µM
TGI (RXF-631 renal): 18.4 µM
TGI (SNB-78 CNS): 32.2 µM
TGI (XF 498 CNS): 3.83 µM

CC(C)=CC(=O)N(C)C1C2CN3CCC(O2)C13 (stereo unspecified)
TGI (DLD-1 colon): > 100 µM
TGI (DMS 273 small cell lung): > 100 µM
TGI (HOP-18 NSCLC): > 100 µM
TGI (KM20L2 colon): > 100 µM
TGI (M19-MEL melanoma): > 100 µM
TGI (SNB-78 CNS): > 100 µM
TGI (XF 498 CNS): > 100 µM

COc1ccc(-c2cc(C(=O)Nc3ccc(C)c(C)c3)nc(NC#N)n2)cc1
TGI (DLD-1 colon): > 100 µM
TGI (DMS 273 small cell lung): > 100 µM
TGI (HOP-18 NSCLC): > 100 µM
TGI (KM20L2 colon): > 100 µM
TGI (M19-MEL melanoma): > 100 µM
TGI (SNB-78 CNS): > 100 µM
TGI (XF 498 CNS): > 100 µM

C[N+](C)(C)CC1CCCC1=O (stereo unspecified)
TGI (DLD-1 colon): 3.15 µM
TGI (DMS 273 small cell lung): 19.9 µM
TGI (HOP-18 NSCLC): 3.3 µM
TGI (KM20L2 colon): 7.79 µM
TGI (M19-MEL melanoma): 5.52 µM
TGI (MDA-N): 3.21 µM
TGI (RXF-631 renal): 32.1 µM
TGI (SNB-78 CNS): 9.86 µM
TGI (XF 498 CNS): 3.87 µM

COCCNC(=O)C1C(=O)C(=O)N(CCOC)C1=O (stereo unspecified)
TGI (DLD-1 colon): > 100 µM
TGI (DMS 273 small cell lung): > 100 µM
TGI (HOP-18 NSCLC): > 100 µM
TGI (KM20L2 colon): > 100 µM
TGI (M19-MEL melanoma): > 100 µM
TGI (RXF-631 renal): > 100 µM
TGI (SNB-78 CNS): > 100 µM

O=C(O)/C=C/c1nc2ccccc2c(=O)o1
TGI (DLD-1 colon): > 100 µM
TGI (DMS 273 small cell lung): > 100 µM
TGI (HOP-18 NSCLC): > 100 µM
TGI (KM20L2 colon): > 100 µM
TGI (M19-MEL melanoma): > 100 µM
TGI (SNB-78 CNS): > 100 µM

c1ccc(CCc2cccnc2)nc1
TGI (MDA-N): > 100 µM

OCCNC1c2cc(Cl)ccc2-c2c(Cl)cc(Cl)cc21 (stereo unspecified)
TGI (MDA-N): > 100 µM

Cc1cc(C)nc(NS(=O)(=O)c2ccc(Nc3c4ccccc4nc4c(C(=O)Nc5ccc(S(=O)(=O)N=C(N)N)cc5)cccc34)cc2)n1
TGI (DLD-1 colon): > 100 µM
TGI (DMS 273 small cell lung): > 100 µM
TGI (HOP-18 NSCLC): > 100 µM
TGI (KM20L2 colon): > 100 µM
TGI (M19-MEL melanoma): > 100 µM
TGI (RXF-631 renal): > 100 µM
TGI (SNB-78 CNS): > 100 µM

Source: PubChem BioAssay (NCI)
